The record followed here is patent US20240294551A1 (AMGEN INC., priority 2022, published 2024).

Each structure is given as a SMILES string.

In test [1] the test system is AsPC-1 cells. The test can be described thus: AsPC-1 CTG Assay (CellTiter-Glo cell viability). Type of test: cell-based, human. Particulars: Homo sapiens, ASPC1, 72 h, AsPC-1, 72 h; first value of the cell; read-out: G12D/C/V Cell Proliferation CTG (72 h) AsPC-1. In short, it runs like this: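 Human pancreatic AsPC-1 or colon SW620 cells in RPMI 1640 with 10% FBS, seeded overnight, then exposed to serially diluted compound for 72 h at 37 °C. CellTiter-Glo luminescence normalized to DMSO control; IC50 from a 4-parameter logistic model.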
On the technique in general: ATP-based viability assays read luminescence as a measure of living cells.

Test [2] concerns the target His-tagged KRAS G12D protein (Homo sapiens (Human), UniProt P01116, G12D). The test can be described thus: KRAS G12D TR-FRET Assay. Conditions: read-out: KRAS G12D Binding IC50. Type of test: binding. In short, it runs like this:
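His-tagged KRAS G12D (diluted to 20 nM in pH 7.4 HEPES buffer with 10 mM MgCl2 and 10 μM GDP) was preincubated with titrated compound for 30 min at room temperature. Biotinylated KRPep-2d peptide (diluted to 20 nM) was then added for 1 h, and displacement was monitored by TR-FRET.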
On the technique in general: TR-FRET usually uses a lanthanide donor and a delayed reading to cut background.

For test [3], the system named is MIA PaCa-2 cells. In words: MIA PaCa-2 CTG Assay (CellTiter-Glo cell viability). Particulars: Homo sapiens; Mia PaCa-2, 72 h; second value of the cell; read-out: G12D/C/V Cell Proliferation CTG (72 h) Mia PaCa-2. The class given is cell-based, human. In short, it runs like this:
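Human pancreatic carcinoma cells in RPMI 1640 with 10% FBS, seeded at 1.67E+04 cells/mL and left overnight, were treated with serially diluted compound for 72 h at 37° C, 5% CO2. Viability was read by CellTiter-Glo luminescence normalized to DMSO; IC50 came from a 4-parameter logistic fit.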

Test [4] has as its system Phosphorylation of ERK1/2 in AsPC-1 cells. In words: Phospho-ERK1/2 MSD Assay. Particulars: Homo sapiens, ASPC1, 2 h, read-out: 2 h p-ERK (AsPC-1 cells), IC50. The class given is cell-based, human. The essentials: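 Read-out: MSD electrochemiluminescent detection of phosphorylated ERK1/2 in whole-cell lysates, fitted to a 4-parameter logistic curve for IC50. Prior to lysis, AsPC-1 cells (25,000 per well) received a 2 h compound dose-response at 37 °C.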

Test [5] deals with GDP-bound KRAS protein (aa 1-169), containing both G12D and C118A amino acid substitutions (Homo sapiens (Human), UniProt P01116, C118A/G12D). In words: KRAS G12D Coupled Nucleotide Exchange Assay. Particulars: read-out: KRAS G12D Coupled Exchange IC50. The class given is biochemical.
GDP-bound KRAS protein (aa 1-169), containing both G12D and C118A amino acid substitutions, sequence (P01116 other isoform, or with tags, fused parts or gaps G12D/C118A): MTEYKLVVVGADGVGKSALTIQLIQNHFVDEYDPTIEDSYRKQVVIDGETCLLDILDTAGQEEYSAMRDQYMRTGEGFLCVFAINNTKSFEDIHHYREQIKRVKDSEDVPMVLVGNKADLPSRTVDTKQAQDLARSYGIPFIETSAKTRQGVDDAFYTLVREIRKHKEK

His-tagged KRAS G12D protein, sequence (P01116 other isoform, or with tags, fused parts or gaps G12D): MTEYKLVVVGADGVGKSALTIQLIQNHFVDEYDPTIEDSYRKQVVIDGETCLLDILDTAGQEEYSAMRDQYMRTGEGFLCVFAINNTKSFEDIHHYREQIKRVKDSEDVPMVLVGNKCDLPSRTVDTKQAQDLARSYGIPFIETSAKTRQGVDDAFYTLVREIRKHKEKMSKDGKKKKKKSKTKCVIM

For `C[C@@]12CCCCN(C1)c1nc(OC[C@@]34CCCN3C[C@H](F)C4)nc3c(F)c(ncc13)-c1c(c(Cl)cc3[nH]ncc13)CCCOC(=O)N2` [Example 290, (26R)-18-chloro-32-fluoro-4-(((2R,7aS)-2-fluorotetrahydro-1H-pyrrolo[1,2-a]pyrrol-7a(5H)-yl)methoxy)-26-methyl-23-oxa-1,3,5,9,14,15,25-heptaazahexacyclo[24.4.1.1~6,10~.0~2,7~.0~11,19~.0~12,16~]dotriaconta-2,4,6(32),7,9,11,13,16,18-nonaen-24-one], the IC50 in test [1] turned out to be 0.036 µM; in test [2], 0.004 µM; in test [3], 0.032 µM; in test [4], 0.0031 µM; in test [5], 0.002 µM.
`Fc1c2ncc3c(nc(OC[C@@]45CCCN4C[C@H](F)C5)nc13)N1CCCC[C@H](C1)c1cnn(n1)CCCc1c(Cl)cc3[nH]ncc3c1-2` [Example 296, (1R)-10-chloro-33-fluoro-24-(((2R,7aS)-2-fluorotetrahydro-1H-pyrrolo[1,2-a]pyrrol-7a(5H)-yl)methoxy)-4,5,13,14,19,23,25,27,34-nonaazaheptacyclo[25.4.1.1~2,5~.1~18,22~.0~9,17~.0~12,16~.0~21,26~]tetratriaconta-2(34),3,9,11,14,16,18(33),19,21,23,25-undecaene]: the IC50 came to 0.15 µM in test [1]; 0.004 µM in test [2]; 0.053 µM in test [3]; 0.0126 µM in test [4]; 0.004 µM in test [5].
`O=C1OCCCc2c(Cl)cc3[nH]ncc3c2-c2cc3nc(OC[C@@]45CCCN4C[C@H](F)C5)nc(c3cn2)N2CCOC[C@H](C2)O1` [Example 303, (26S)-18-chloro-4-(((2R,7aS)-2-fluorotetrahydro-1H-pyrrolo[1,2-a]pyrrol-7a(5H)-yl)methoxy)-23,25,28-trioxa-1,3,5,9,14,15-hexaazahexacyclo[24.4.1.1~6,10~.0~2,7~.0~11,19~.0~12,16~]dotriaconta-2,4,6,8,10(32),11,13,16,18-nonaen-24-one]: the IC50 amounted to 0.155 µM in test [1]; 0.004 µM in test [2]; 0.075 µM in test [3]; 0.01 µM in test [4]; 0.002 µM in test [5].
Consider `CN(C)CC1(COc2nc3c4cc(F)c(c(F)c4n2)-c2c(c(Cl)cc4[nH]ncc24)CCCOC(=O)O[C@@H]2COCCN3C2)CC1` [Example 305, p-(26S)-18-chloro-4-((1-((dimethylamino)methyl)cyclopropyl)methoxy)-9,32-difluoro-23,25,28-trioxa-1,3,5,14,15-pentaazahexacyclo[24.4.1.1~6,10~.0~2,7~.0~11,19~.0~12,16~]dotriaconta-2,4,6,8,10(32),11,13,16,18-nonaen-24-one], for which the IC50 in test [1] came out at 0.061 µM; in test [2], 0.004 µM; in test [3], 0.134 µM; in test [4], 0.0177 µM; in test [5] it was 0.003 µM.
On the same counts, the results for `CN1C[C@H](F)C[C@H]1COc1nc2c3cnc(c(F)c3n1)-c1c(c(Cl)cc3[nH]ncc13)CCCOC(=O)O[C@]1(C)COCCN2C1` [Example 318, (26S)-18-chloro-32-fluoro-4-(((2S,4R)-4-fluoro-1-methyl-2-pyrrolidinyl)methoxy)-26-methyl-23,25,28-trioxa-1,3,5,9,14,15-hexaazahexacyclo[24.4.1.1~6,10~.0~2,7~.0~11,19~.0~12,16~]dotriaconta-2,4,6,8,10(32),11,13,16,18-nonaen-24-one] are 0.183 µM, 0.005 µM, 0.033 µM, 0.0351 µM and 0.003 µM.
With `CN1C[C@H](F)C[C@H]1COc1nc2c3cnc(c(F)c3n1)-c1c(c(Cl)cc3[nH]ncc13)CCOC(=O)O[C@H]1C[C@@]3(CCCN2C3)C1` [Example 320, (1S,3R)-10-chloro-32-fluoro-24-(((2S,4R)-4-fluoro-1-methyl-2-pyrrolidinyl)methoxy)-4,6-dioxa-13,14,19,23,25,27-hexaazaheptacyclo[25.3.1.1~1,3~.1~18,22~.0~9,17~.0~12,16~.0~21,26~]tritriaconta-9,11,14,16,18(32),19,21,23,25-nonaen-5-one], the IC50 in test [1] turned out to be 0.137 µM; in test [2], 0.004 µM; in test [3], 0.08 µM; in test [4] it was 0.0138 µM; in test [5] it was 0.003 µM.
For `Cc1cc2[nH]ncc2c2c1CCOC(=O)O[C@H]1C[C@@]3(CCCN(C3)c3nc(OC[C@@H]4C[C@@H](F)CN4C)nc4c(F)c-2ncc34)C1` [Example 321, (1S,3R)-32-fluoro-24-(((2S,4R)-4-fluoro-1-methyl-2-pyrrolidinyl)methoxy)-10-methyl-4,6-dioxa-13,14,19,23,25,27-hexaazaheptacyclo[25.3.1.1~1,3~.1~18,22~.0~9,17~.0~12,16~.0~21,26~]tritriaconta-9,11,14,16,18(32),19,21,23,25-nonaen-5-one] the same measures were 0.186 µM, 0.005 µM, 0.162 µM, 0.025 µM and 0.002 µM.
On the same counts, the results for `CN1[C@H](COc2nc3c4cnc(c(F)c4n2)-c2c(c(Cl)cc4[nH]ncc24)CCCOC(=O)O[C@@H]2COCCN3C2)C[C@H]2C[C@H]21` [Example 329, (26S)-18-chloro-32-fluoro-4-(((1R,3S,5R)-2-methyl-2-azabicyclo[3.1.0]hexan-3-yl)methoxy)-23,25,28-trioxa-1,3,5,9,14,15-hexaazahexacyclo[24.4.1.1~6,10~.0~2,7~.0~11,19~.0~12,16~]dotriaconta-2,4,6,8,10(32),11,13,16,18-nonaen-24-one] are 0.402 µM, 0.014 µM, 0.53 µM, 0.206 µM and 0.007 µM.
Consider `CN1[C@H](COc2nc3c4cnc(c(F)c4n2)-c2c(c(Cl)cc4[nH]ncc24)CCCOC(=O)O[C@@H]2COCCN3C2)C[C@@H]2C[C@@H]21` [Example 330, (26S)-18-chloro-32-fluoro-4-(((1S,3S,5S)-2-methyl-2-azabicyclo[3.1.0]hexan-3-yl)methoxy)-23,25,28-trioxa-1,3,5,9,14,15-hexaazahexacyclo[24.4.1.1~6,10~.0~2,7~.0~11,19~.0~12,16~]dotriaconta-2,4,6,8,10(32),11,13,16,18-nonaen-24-one], for which the IC50 in test [1] came to 0.128 µM; in test [2] it was 0.004 µM; in test [3] it was 0.054 µM; in test [4], 0.02 µM; in test [5], 0.002 µM.
`CN1CCC[C@H]1COc1nc2c3cnc(c(F)c3n1)-c1c(c(Cl)cc3[nH]ncc13)CCCOC(=O)O[C@]1(CF)COCCN2C1` [Example 338, (26S)-18-chloro-32-fluoro-26-(fluoromethyl)-4-(((2S)-1-methyl-2-pyrrolidinyl)methoxy)-23,25,28-trioxa-1,3,5,9,14,15-hexaazahexacyclo[24.4.1.1~6,10~.0~2,7~.0~11,19~.0~12,16~]dotriaconta-2,4,6,8,10(32),11,13,16,18-nonaen-24-one]: the IC50 in test [1] was 0.268 µM; in test [2], 0.007 µM; in test [3], 0.035 µM; in test [4], 0.0415 µM; in test [5], 0.002 µM.
With `O=C1OCCCc2c(Cl)cc3[nH]ncc3c2-c2ncc3c(nc(OC[C@@]45CCCN4C[C@H](F)C5)nc3c2F)N2CCCC[C@](CF)(C2)O1` [Example 340, (26R)-18-chloro-32-fluoro-26-(fluoromethyl)-4-(((2R,7aS)-2-fluorotetrahydro-1H-pyrrolo[1,2-a]pyrrol-7a(5H)-yl)methoxy)-23,25-dioxa-1,3,5,9,14,15-hexaazahexacyclo[24.4.1.1~6,10~.0~2,7~.0~11,19~.0~12,16~]dotriaconta-2,4,6,8,10(32),11,13,16,18-nonaen-24-one], the IC50 amounted to 0.042 µM in test [1]; 0.004 µM in test [2]; 0.017 µM in test [3]; 0.0025 µM in test [4]; 0.001 µM in test [5].
On the same counts, the results for `[2H]C([2H])([2H])[C@@]12COCCN(C1)c1nc(OC[C@@]34CCCN3C[C@H](F)C4)nc3c(F)c(ncc13)-c1c(c(Cl)cc3[nH]ncc13)CCCOC(=O)O2` [Example 353, (26S)-18-chloro-32-fluoro-4-(((2R,7aS)-2-fluorotetrahydro-1H-pyrrolo[1,2-a]pyrrol-7a(5H)-yl)methoxy)-26-(~2~H_3_)methyl-23,25,28-trioxa-1,3,5,9,14,15-hexaazahexacyclo[24.4.1.1~6,10~.0~2,7~.0~11,19~.0~12,16~]dotriaconta-2,4,6(32),7,9,11,13,16,18-nonaen-24-one] are 0.022 µM, 0.003 µM, 0.003 µM, 0.0019 µM and 0.001 µM.
